Patent US9428500B2, “Alpha-carbolines for the treatment of cancer” (UNIVERSITA' DEGLI STUDI DI MILANO—BICOCCA, priority 2012, dated 2016)

Test system: parental untransformed BaF3 cells
Assay: Tritiated thymidine uptake cell proliferation assay, parental BaF3
Assay type: cell-based
Conditions: 3H-thymidine uptake, 72 h, medium with IL-3

| Compound | IC50 [µM] | IC50 (Mus musculus, BaF3) [µM] |
| --- | --- | --- |
| 62:38 mixture of (E)-6-(4-(4-methylpiperazin-1-yl)phenyl)-4-(1-phenylbut-1-en-2-yl)-9H-pyrido[2,3-b]indole and (E)-6-(4-(4-methylpiperazin-1-yl)phenyl)-4-(1-phenylbut-1-en-1-yl)-9H-pyrido[2,3-b]indole [Example 31] | 0.93 | – |
| CN1CCN(c2ccc(-c3ccc4[nH]c5nccc(Cl)c5c4c3)cc2)CC1 [Example 1, 4-Chloro-6-[4-(4-methylpiperazin-1-yl)-phenyl]-9H-pyrido[2,3-b]indole] | – | 1.4 |
| CN1CCN(c2ccc(-c3ccc4[nH]c5nccc(/C=C/c6ccccc6)c5c4c3)cc2)CC1 [Example 2, (E)-6-[4-(4-Methylpiperazin-1-yl)-phenyl]-4-(2-phenylvinyl)-9H-pyrido[2,3-b]indole] | – | 0.8 |
| C/C(=C\c1ccccc1C(F)(F)F)c1ccnc2[nH]c3ccc(-c4ccc(N5CCN(C)CC5)cc4)cc3c12 [Example 3, (E)-6-[4-(4-Methylpiperazin-1-yl)-phenyl]-4-[1-(2-(trifluoromethyl)phenyl)prop-1-en-2-yl]-9H-pyrido[2,3-b]indole] | – | 2.4 |
| CN1CCN(c2ccc(-c3ccc4[nH]c5nccc(-c6ccc(-c7ccccc7)cc6)c5c4c3)cc2)CC1 [Example 5, 4-Biphenyl-4-yl-6-[4-(4-methylpiperazin-1-yl)-phenyl]-9H-pyrido[2,3-b]indole] | – | > 25 |
| CN1CCN(c2ccc(-c3ccc4[nH]c5nccc(/C=C/c6cccc(F)c6)c5c4c3)cc2)CC1 [Example 6, (E)-4-[2-(3-Fluorophenyl)vinyl]-6-[4-(4-methylpiperazin-1-yl)-phenyl]-9H-pyrido[2,3-b]indole] | – | 9.5 |
| COc1ccc(/C=C/c2ccnc3[nH]c4ccc(-c5ccc(N6CCN(C)CC6)cc5)cc4c23)cc1 [Example 7, (E)-4-[2-(4-Methoxyphenyl)vinyl]-6-[4-(4-methylpiperazin-1-yl)-phenyl]-9H-pyrido[2,3-b]indole] | – | 4.1 |
| CN1CCN(c2ccc(-c3ccc4[nH]c5nccc(-c6ccc(OCc7ccccc7)cc6)c5c4c3)cc2)CC1 [Example 8, 4-(4-Benzyloxyphenyl)-6-[4-(4-methylpiperazin-1-yl)-phenyl]-9H-pyrido[2,3-b]indole] | – | 5 |
| CN1CCN(c2ccc(-c3ccc4[nH]c5nccc(-c6ccc(COc7cccc(C(F)(F)F)c7)cc6)c5c4c3)cc2)CC1 [Example 9, 6-[4-(4-Methylpiperazin-1-yl)-phenyl]-4-[4-(3-trifluoromethyl-phenoxymethyl)-phenyl]-9H-pyrido[2,3-b]indole] | – | 25 |
| COc1ccccc1/C=C/c1ccnc2[nH]c3ccc(-c4ccc(N5CCN(C)CC5)cc4)cc3c12 [Example 10, (E)-4-(2-(2-Methoxyphenyl)vinyl)-6-(4-(4-methylpiperazin-1-yl)phenyl)-9H-pyrido[2,3-b]indole] | – | 2.1 |
| CN1CCN(c2ccc(-c3ccc4[nH]c5nccc(/C=C/c6ccccc6C(F)(F)F)c5c4c3)cc2)CC1 [Example 11, (E)-6-(4-(4-Methylpiperazin-1-yl)phenyl)-4-(2-(2-(trifluoromethyl)phenyl)vinyl)-9H-pyrido[2,3-b]indole] | – | 1.7 |
| Cc1cc(OCc2ccc(-c3ccnc4[nH]c5ccc(-c6ccc(N7CCN(C)CC7)cc6)cc5c34)cc2)ccc1Cl [Example 12, 4-[4-(4-Chloro-3-methyl-phenoxymethyl)-phenyl]-6-[4-(4-methylpiperazin-1-yl)-phenyl]-9H-pyrido[2,3-b]indole] | – | > 50 |
| CN1CCN(c2ccc(-c3ccc4[nH]c5nccc(/C=C/c6ccc(F)cc6)c5c4c3)cc2)CC1 [Example 13, (E)-4-(2-(4-Fluorophenyl)vinyl)-6-(4-(4-methylpiperazin-1-yl)phenyl)-9H-pyrido[2,3-b]indole] | – | 7.6 |
| CN1CCN(c2ccc(-c3ccc4[nH]c5nccc(/C=C/c6ccc(C(F)(F)F)cc6)c5c4c3)cc2)CC1 [Example 14, (E)-6-(4-(4-Methylpiperazin-1-yl)phenyl)-4-(2-(4-(trifluoromethyl)phenyl)vinyl)-9H-pyrido[2,3-b]indole] | – | > 25 |
| CN1CCN(c2ccc(-c3ccc4[nH]c5nccc(-c6ccc(-c7ccccc7)cc6F)c5c4c3)cc2)CC1 [Example 15, 4-(3-Fluoro-biphenyl-4-yl)-6-[4-(4-methylpiperazin-1-yl)-phenyl]-9H-pyrido[2,3-b]indole] | – | 6.3 |
| CN1CCN(c2ccc(-c3ccc4[nH]c5nccc(-c6cccc(-c7ccccc7)c6)c5c4c3)cc2)CC1 [Example 17, 4-Biphenyl-3-yl-6-[4-(4-methylpiperazin-1-yl)-phenyl]-9H-pyrido[2,3-b]indole] | – | 2.7 |
| CN1CCN(c2ccc(-c3ccc4[nH]c5nccc(/C=C/c6ccccc6F)c5c4c3)cc2)CC1 [Example 18, (E)-4-(2-(2-Fluorophenyl)vinyl)-6-(4-(4-methylpiperazin-1-yl)phenyl)-9H-pyrido[2,3-b]indole] | – | 5.1 |
| CN1CCN(c2ccc(-c3ccc4[nH]c5nccc(/C=C/c6ccccc6Cl)c5c4c3)cc2)CC1 [Example 19, (E)-4-(2-(2-Chlorophenyl)vinyl)-6-(4-(4-methylpiperazin-1-yl)phenyl)-9H-pyrido[2,3-b]indole] | – | 2 |

| Compound | IC50 [µM] | IC50 (Mus musculus, BaF3) [µM] |
| --- | --- | --- |
| CN1CCC(N2CCN(c3ccc(-c4ccc5[nH]c6nccc(-c7ccc(Cc8ccccc8)cc7)c6c5c4)cc3)CC2)CC1 [Example 21, 4-(4-Benzylphenyl)-6-(4-(4-(1-methylpiperidin-4-yl)piperazin-1-yl)phenyl)-9H-pyrido[2,3-b]indole] | – | 3.7 |
| CN1CCC(N2CCN(c3ccc(-c4ccc5[nH]c6nccc(/C=C/c7ccccc7C(F)(F)F)c6c5c4)cc3)CC2)CC1 [Example 22, (E)-6-(4-(4-(1-Methylpiperidin-4-yl)piperazin-1-yl)phenyl)-4-(2-(2-(trifluoromethyl)phenyl)vinyl)-9H-pyrido[2,3-b]indole] | – | 3.9 |
| CN1CCN(c2ccc(-c3ccc4[nH]c5nccc(-c6ccc(C(=O)c7ccccc7)cc6)c5c4c3)cc2)CC1 [Example 23, (4-{6-[4-(4-Methylpiperazin-1-yl)-phenyl]-9H-pyrido[2,3-b]indol-4-yl}-phenyl)-phenyl-methanone] | – | 2.3 |
| CN1CCN(c2ccc(-c3ccc4[nH]c5nccc(-c6ccc(-c7cccc8ccccc78)cc6)c5c4c3)cc2)CC1 [Example 24, 6-[4-(4-Methylpiperazin-1-yl)-phenyl]-4-(4-naphthalen-1-yl-phenyl)-9H-pyrido[2,3-b]indole] | – | 18 |
| CN1CCN(c2ccc(-c3ccc4[nH]c5nccc(/C(=C/c6ccccc6)c6ccccc6)c5c4c3)cc2)CC1 [Example 25, (E)-4-(1,2-Diphenylvinyl)-6-[4-(4-methylpiperazin-1-yl)-phenyl]-9H-pyrido[2,3-b]indole] | – | 7.5 |
| COc1ccc(Cc2ccc(-c3ccnc4[nH]c5ccc(-c6ccc(N7CCN(C)CC7)cc6)cc5c34)cc2)c(OC)c1 [Example 26, 4-[4-(2,4-Dimethoxybenzyl)phenyl]-6-[4-(4-methylpiperazin-1-yl)-phenyl]-9H-pyrido[2,3-b]indole] | – | 0.63 |
| COc1ccccc1/C=C(\C)c1ccnc2[nH]c3ccc(-c4ccc(N5CCN(C)CC5)cc4)cc3c12 [Example 27, (E)-4-[1-(2-Methoxyphenyl)-prop-1-en-2-yl]-6-[4-(4-methylpiperazin-1-yl)-phenyl]-9H-pyrido[2,3-b]indole] | – | 2.4 |
| C/C(=C\c1ccccc1)c1ccnc2[nH]c3ccc(-c4ccc(N5CCN(C)CC5)cc4)cc3c12 [Example 28, (E)-6-(4-(4-methylpiperazin-1-yl)phenyl)-4-(1-phenylprop-1-en-2-yl)-9H-pyrido[2,3-b]indole] | – | 0.8 |
| CN1CCN(c2ccc(-c3ccc4[nH]c5nccc(/C=C/c6ccccc6NS(C)(=O)=O)c5c4c3)cc2)CC1 [Example 29, N-[(E)-2-(2-{6-[4-(4-Methylpiperazin-1-yl)-phenyl]-9H-pyrido[2,3-b]indol-4-yl}-vinyl)-phenyl]-methanesulfonamide] | – | 0.68 |
| CC/C=C(\c1ccccc1)c1ccnc2[nH]c3ccc(-c4ccc(N5CCN(C)CC5)cc4)cc3c12 [Example 30, (E)-6-[4-(4-Methylpiperazin-1-yl)-phenyl]-4-(1-phenyl-but-1-enyl)-9H-pyrido[2,3-b]indole] | – | 0.22 |
| CC(C)[Si](C=Cc1ccnc2[nH]c3ccc(-c4ccc(N5CCN(C)CC5)cc4)cc3c12)(C(C)C)C(C)C [Example 32, (E) and (Z)-6-(4-(4-methylpiperazin-1-yl)phenyl)-4-(2-(triisopropylsilyl)vinyl)-9H-pyrido[2,3-b]indole] | – | 6.9 |
| CN1CCN(c2ccc(-c3ccc4[nH]c5nccc(-c6ccc(C(O)c7ccccc7)cc6)c5c4c3)cc2)CC1 (centres unmarked) [Example 33, (4-{6-[4-(4-Methylpiperazin-1-yl)-phenyl]-9H-pyrido[2,3-b]indol-4-yl}-phenyl)-phenyl-methanol] | – | 1 |
| CN1CCN(c2ccc(-c3ccc4[nH]c5nccc(Nc6ccccc6[N+](=O)[O-])c5c4c3)cc2)CC1 [Example 34, {6-[4-(4-Methylpiperazin-1-yl)-phenyl]-9H-pyrido[2,3-b]indol-4-yl}-(2-nitro-phenyl)-amine] | – | 0.86 |
| CN1CCN(c2ccc(-c3ccc4[nH]c5nccc(Nc6cccc([N+](=O)[O-])c6)c5c4c3)cc2)CC1 [Example 35, 6-(4-(4-Methylpiperazin-1-yl)phenyl)-N-(3-nitrophenyl)-9H-pyrido[2,3-b]indol-4-amine] | – | 0.48 |
| CN1CCC(N2CCN(c3ccc(-c4ccc5[nH]c6nccc(Nc7ccccc7[N+](=O)[O-])c6c5c4)cc3)CC2)CC1 [Example 36, 6-(4-(4-(1-Methylpiperidin-4-yl)piperazin-1-yl)phenyl)-N-(2-nitrophenyl)-9H-pyrido[2,3-b]indol-4-amine] | – | 7.1 |
| CN1CCN(c2ccc(-c3ccc4[nH]c5nccc(C#Cc6ccccc6)c5c4c3)cc2)CC1 [Example 37, 6-[4-(4-Methylpiperazin-1-yl)-phenyl]-4-phenylethynyl-9H-pyrido[2,3-b]indole] | – | 4.4 |
| COc1ccccc1C#Cc1ccnc2[nH]c3ccc(-c4ccc(N5CCN(C)CC5)cc4)cc3c12 [Example 38, 4-(2-Methoxyphenylethynyl)-6-[4-(4-methylpiperazin-1-yl)-phenyl]-9H-pyrido[2,3-b]indole] | – | 1.5 |
